Data reported in PubChem BioAssay (NCI).
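1) Cells in 96-well plates. 2) Compound, 48 h, 5 concentrations. 3) Linear interpolation between surrounding doses. 4) Unreached endpoint = highest concentration. At the GI50, growth is halved. TGI denotes the concentration required for complete inhibition of growth.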

Assays:
Experiment in all cases: inhibition of tumour cell growth, NCI panel, 48 h
786-0 renal = test system: 786-0 renal
A498 renal = test system: A498 renal
A549 NSCLC = test system: A549 NSCLC
ACHN renal = test system: ACHN renal
BT-549 breast = test system: BT-549 breast
CAKI-1 renal = test system: CAKI-1 renal
CCRF-CEM leukemia = test system: CCRF-CEM leukemia
COLO 205 colon = test system: COLO 205 colon
DU-145 prostate = test system: DU-145 prostate
EKVX NSCLC = test system: EKVX NSCLC
HCC-2998 colon = test system: HCC-2998 colon
HCT-116 colon = test system: HCT-116 colon
HCT-15 colon = test system: HCT-15 colon
HL-60(TB) leukemia = test system: HL-60(TB) leukemia
HOP-62 NSCLC = test system: HOP-62 NSCLC
HOP-92 NSCLC = test system: HOP-92 NSCLC
HS 578T breast = test system: HS 578T breast
HT29 colon = test system: HT29 colon
IGROV1 ovarian = test system: IGROV1 ovarian
K-562 leukemia = test system: K-562 leukemia
KM12 colon = test system: KM12 colon
LOX IMVI melanoma = test system: LOX IMVI melanoma
M14 melanoma = test system: M14 melanoma
MALME-3M melanoma = test system: MALME-3M melanoma
MCF7 breast = test system: MCF7 breast
MDA-MB-231 breast = test system: MDA-MB-231 breast
MDA-MB-435 = test system: MDA-MB-435
MOLT-4 leukemia = test system: MOLT-4 leukemia
NCI-H226 lung = test system: NCI-H226 lung
NCI-H23 lung = test system: NCI-H23 lung
NCI-H460 lung = test system: NCI-H460 lung
NCI-H522 lung = test system: NCI-H522 lung
NCI/ADR-RES ovarian = test system: NCI/ADR-RES ovarian
OVCAR-3 ovarian = test system: OVCAR-3 ovarian
OVCAR-4 ovarian = test system: OVCAR-4 ovarian
OVCAR-5 ovarian = test system: OVCAR-5 ovarian
OVCAR-8 ovarian = test system: OVCAR-8 ovarian
PC-3 prostate = test system: PC-3 prostate
RPMI-8226 leukemia = test system: RPMI-8226 leukemia
RXF 393 renal = test system: RXF 393 renal
SF-268 CNS = test system: SF-268 CNS
SF-295 CNS = test system: SF-295 CNS
SF-539 CNS = test system: SF-539 CNS
SK-MEL-2 melanoma = test system: SK-MEL-2 melanoma
SK-MEL-28 melanoma = test system: SK-MEL-28 melanoma
SK-MEL-5 melanoma = test system: SK-MEL-5 melanoma
SK-OV-3 ovarian = test system: SK-OV-3 ovarian
SN12C renal = test system: SN12C renal
SNB-19 CNS = test system: SNB-19 CNS
SNB-75 CNS = test system: SNB-75 CNS
SR leukemia = test system: SR leukemia
SW-620 colon = test system: SW-620 colon
T-47D breast = test system: T-47D breast
TK-10 renal = test system: TK-10 renal
U251 CNS = test system: U251 CNS
UACC-257 melanoma = test system: UACC-257 melanoma
UACC-62 melanoma = test system: UACC-62 melanoma
UO-31 renal = test system: UO-31 renal

CC1(C)N=C(N)N=C(N)N1c1cccc(CCCCc2ccccc2)c1
GI50 (786-0 renal): 0.518 µM
TGI (786-0 renal): 16.4 µM
GI50 (A498 renal): 1.75 µM
TGI (A498 renal): 15.9 µM
GI50 (A549 NSCLC): 0.0382 µM
TGI (A549 NSCLC): 1.35 µM
GI50 (ACHN renal): 3.22 µM
TGI (ACHN renal): 19.7 µM
GI50 (BT-549 breast): 0.901 µM
TGI (BT-549 breast): 3.99 µM
GI50 (CAKI-1 renal): 4.15 µM
TGI (CAKI-1 renal): 22.3 µM
GI50 (CCRF-CEM leukemia): 0.123 µM
TGI (CCRF-CEM leukemia): 7.04 µM
GI50 (COLO 205 colon): 0.448 µM
TGI (COLO 205 colon): 2.36 µM
GI50 (DU-145 prostate): 0.351 µM
TGI (DU-145 prostate): 15 µM
GI50 (EKVX NSCLC): 0.87 µM
TGI (EKVX NSCLC): 20.6 µM
GI50 (HCC-2998 colon): 0.195 µM
TGI (HCC-2998 colon): 3.82 µM
GI50 (HCT-116 colon): 0.0501 µM
TGI (HCT-116 colon): 17 µM
GI50 (HCT-15 colon): 1.73 µM
TGI (HCT-15 colon): 21.7 µM
GI50 (HL-60(TB) leukemia): 0.0925 µM
TGI (HL-60(TB) leukemia): 2.52 µM
GI50 (HOP-62 NSCLC): 0.556 µM
TGI (HOP-62 NSCLC): 22.2 µM
GI50 (HOP-92 NSCLC): 0.326 µM
TGI (HOP-92 NSCLC): 4.44 µM
GI50 (HS 578T breast): 4.57 µM
TGI (HS 578T breast): 28.5 µM
GI50 (HT29 colon): 0.0543 µM
TGI (HT29 colon): 11.6 µM
GI50 (IGROV1 ovarian): 0.135 µM
TGI (IGROV1 ovarian): 10.1 µM
GI50 (K-562 leukemia): 0.0688 µM
TGI (K-562 leukemia): 13.6 µM
GI50 (KM12 colon): 0.212 µM
TGI (KM12 colon): 1.86 µM
GI50 (LOX IMVI melanoma): 0.062 µM
TGI (LOX IMVI melanoma): 14.9 µM
GI50 (M14 melanoma): 0.657 µM
TGI (M14 melanoma): 18.6 µM
GI50 (MALME-3M melanoma): 2.31 µM
TGI (MALME-3M melanoma): 14.8 µM
GI50 (MCF7 breast): 0.312 µM
TGI (MCF7 breast): 10.2 µM
GI50 (MDA-MB-231 breast): 2.47 µM
TGI (MDA-MB-231 breast): 21.3 µM
GI50 (MDA-MB-435): 0.0616 µM
TGI (MDA-MB-435): 11.9 µM
GI50 (MOLT-4 leukemia): 0.319 µM
TGI (MOLT-4 leukemia): 8.76 µM
GI50 (NCI-H226 lung): 2.35 µM
TGI (NCI-H226 lung): 24.5 µM
GI50 (NCI-H23 lung): 0.402 µM
TGI (NCI-H23 lung): 14.1 µM
GI50 (NCI-H460 lung): 0.0493 µM
TGI (NCI-H460 lung): 11.4 µM
GI50 (NCI-H522 lung): 0.691 µM
TGI (NCI-H522 lung): 13.7 µM
GI50 (NCI/ADR-RES ovarian): > 73.4 µM
TGI (NCI/ADR-RES ovarian): > 100 µM
GI50 (OVCAR-3 ovarian): 0.35 µM
TGI (OVCAR-3 ovarian): 8.74 µM
GI50 (OVCAR-4 ovarian): 0.433 µM
TGI (OVCAR-4 ovarian): 18.8 µM
GI50 (OVCAR-5 ovarian): 11.1 µM
TGI (OVCAR-5 ovarian): 25.9 µM
GI50 (OVCAR-8 ovarian): 0.262 µM
TGI (OVCAR-8 ovarian): 16 µM
GI50 (PC-3 prostate): 0.0497 µM
TGI (PC-3 prostate): 3.09 µM
GI50 (RPMI-8226 leukemia): 0.289 µM
TGI (RPMI-8226 leukemia): 2.72 µM
GI50 (RXF 393 renal): 2.28 µM
TGI (RXF 393 renal): 17.2 µM
GI50 (SF-268 CNS): 0.0735 µM
TGI (SF-268 CNS): 15 µM
GI50 (SF-295 CNS): 0.229 µM
TGI (SF-295 CNS): 5.79 µM
GI50 (SF-539 CNS): 0.212 µM
TGI (SF-539 CNS): 7.39 µM
GI50 (SK-MEL-2 melanoma): 1.82 µM
TGI (SK-MEL-2 melanoma): 11.4 µM
GI50 (SK-MEL-28 melanoma): 0.894 µM
TGI (SK-MEL-28 melanoma): 15.6 µM
GI50 (SK-MEL-5 melanoma): 0.198 µM
TGI (SK-MEL-5 melanoma): 1.36 µM
GI50 (SK-OV-3 ovarian): 1.98 µM
TGI (SK-OV-3 ovarian): 17 µM
GI50 (SN12C renal): 0.427 µM
TGI (SN12C renal): 12.3 µM
GI50 (SNB-19 CNS): 0.907 µM
TGI (SNB-19 CNS): 16.6 µM
GI50 (SNB-75 CNS): 3.06 µM
TGI (SNB-75 CNS): 16.3 µM
GI50 (SR leukemia): 0.188 µM
TGI (SR leukemia): 2.89 µM
GI50 (SW-620 colon): 0.0532 µM
TGI (SW-620 colon): 16.4 µM
GI50 (T-47D breast): 1.28 µM
TGI (T-47D breast): 16.2 µM
GI50 (TK-10 renal): 0.704 µM
TGI (TK-10 renal): 20.3 µM
GI50 (U251 CNS): 0.0541 µM
TGI (U251 CNS): 13.5 µM
GI50 (UACC-257 melanoma): 0.78 µM
TGI (UACC-257 melanoma): 12.1 µM
GI50 (UACC-62 melanoma): 0.186 µM
TGI (UACC-62 melanoma): 10.9 µM
GI50 (UO-31 renal): 10.2 µM
TGI (UO-31 renal): 32 µM
